Experimental findings from BindingDB's records for doi:10.1021/jm100394y (Amgen, 2010) are described below.

Each structure is given as a SMILES string.

The assay is described as follows: Inhibition of aurora B in human HeLa cells assessed as increase of >= 4N DNA level after 24 hrs by Hoechst staining.
`CNc1nccc(-c2cccnc2Oc2ccc(NC(=O)c3cccc(Oc4ccccc4)c3)cc2C)n1` [N-(3-Methyl-4-(3-(2-(methylamino)pyrimidin-4-yl)pyridin-2-yloxy)phenyl)-3-phenoxybenzamide]: the half-maximal effective concentration (EC50) is above 1200 nM. With `CNc1nccc(-c2cccnc2Oc2ccc(NC(=O)c3ccccc3Nc3ccccc3)c(C)c2)n1` [N-(2-Methyl-4-(3-(2-(methylamino)pyrimidin-4-yl)pyridin-2-yloxy)phenyl)-2-(phenylamino)benzamide], the EC50 worked out at 1450 nM. With `CNc1nccc(-c2cccnc2Oc2ccc(NC(=O)c3ccccc3Oc3ccccc3)cc2C)n1` [N-(3-Methyl-4-(3-(2-(methylamino)pyrimidin-4-yl)pyridin-2-yloxy)phenyl)-2-phenoxybenzamide], the EC50 was above 1200 nM. As to `CNc1nccc(-c2cccnc2Oc2ccc(NC(=O)c3cc(F)ccc3Nc3ccccc3)cc2)n1` [5-Fluoro-N-(4-(3-(2-(methylamino)pyrimidin-4-yl)pyridin-2-yloxy)phenyl)-2-(phenylamino)benzamide], the EC50 worked out at 20 nM. The value for `CNc1nccc(-c2cccnc2Oc2ccc(NC(=O)c3ccccc3Nc3ccc(F)cc3)cc2)n1` [2-(4-Fluorophenylamino)-N-(4-(3-(2-(methylamino)pyrimidin-4-yl)pyridin-2-yloxy)phenyl)benzamide] was 28 nM. With `CNc1nccc(-c2cccnc2Oc2ccc(NC(=O)c3cccc(C(F)(F)F)c3)cc2C)n1` [N-(3-Methyl-4-(3-(2-(methylamino)pyrimidin-4-yl)pyridin-2-yloxy)phenyl)-3-(trifluoromethyl)benzamide], the EC50 was above 1200 nM. With `CNc1nccc(-c2cccnc2Oc2ccc(NC(=O)c3ccc(Cl)cc3)cc2C)n1` [4-Chloro-N-(3-methyl-4-(3-(2-(methylamino)pyrimidin-4-yl)-pyridin-2-yloxy)phenyl)benzamide] the figure was above 1200 nM; with `CNc1nccc(-c2cccnc2Oc2ccc(NC(=O)c3ccccc3Nc3ccccc3)cc2)n1` [N-(4-(3-(2-(Methylamino)pyrimidin-4-yl)pyridin-2-yloxy)phenyl)-2-(phenylamino)benzamide], 15 nM.

For the molecule `CNc1nccc(-c2cccnc2Oc2ccc(Nc3nnc(-c4ccccc4)c4ccccc34)cc2)n1` [N-(4-(3-(2-(Methylamino)pyrimidin-4-yl)pyridin-2-yloxy)phenyl)-4-phenylphthalazin-1-amine], the half-maximal effective concentration (EC50) is 15 nM.

Turning to `CNc1nccc(-c2cccnc2Oc2ccc(NC(=O)c3cccc(Cl)c3)cc2C)n1` [3-Chloro-N-(3-methyl-4-(3-(2-(methylamino)pyrimidin-4-yl)-pyridin-2-yloxy)phenyl)benzamide], the half-maximal effective concentration (EC50) is above 1200 nM. With `CNc1nccc(-c2cccnc2Oc2ccc(NC(=O)c3ccccc3Nc3ccccc3)cc2C)n1` [N-(3-Methyl-4-(3-(2-(methylamino)pyrimidin-4-yl)pyridin-2-yloxy)phenyl)-2-(phenylamino)benzamide] the figure was 89 nM. As to `CNc1nccc(-c2cccnc2Oc2ccc(Nc3nnc(-c4ccc(F)cc4)c4ccccc34)cc2)n1` [4-(4-Fluorophenyl)-N-(4-(3-(2-(methylamino)pyrimidin-4-yl)-pyridin-2-yloxy)phenyl)phthalazin-1-amine], the 50% effective concentration (EC50) worked out at 24 nM.

For orientation: EC50 means the concentration that produces a half-maximal response.
